We go through 2 compounds from patent publication US20230250077A1, “SULFONYLBENZAMIDE DERIVATIVE AND CONJUGATE THEREOF, PREPARATION METHOD THEREFOR AND USE THEREOF” (Jiangsu Hengrui Pharmaceuticals Co., Ltd., priority 2020, published 2023).

For one data set, the target named is T1, BCL-2 (Homo sapiens, UniProt P10415).
T1 construct: purchased R&D systems 827-BC-050
As to the kind of experiment: Binding activity for BCL-2 (HTRF, biotin-labeled BIM). Particulars: His-tagged BCL-2, biotin-labeled BIM. The procedure: In vitro BCL-2-binding activity was tested by the following method.
Reagents used in this experiment: His-tagged BCL-2 protein (R&D systems, Cat #827-BC-050); biotin-labeled BIM protein (R&D, Cat #3526/1); binding buffer (cisbio, Cat #62DLBDDF); assay buffer (cisbio, Cat #62DB1FDG); MAb anti-6His-Eu cryptate (cisbio, Cat #61HI2KLA); and affinity streptomycin linked XL665 (cisbio, Cat #611SAXLA).
The in vitro binding assay described below can determine the binding activity of test compounds for BCL-2.
The test compounds were dissolved in dimethyl sulfoxide and diluted to gradient concentrations as required for the experiment, and the compounds at various concentrations formulated in dimethyl sulfoxide were subjected to a 100-fold dilution with a binding buffer. BCL-2 was diluted to the corresponding concentration with a binding buffer solution, and added to a white 384-well plate at 4 μL/well. Then the diluted test compound was added into the white 384-well plate at 2 μL/well. The plate was incubated at 25° C. for 1 h after the mixture was uniformly mixed. Biotin-labeled BIM protein was diluted to the corresponding concentration with a binding buffer, and added to a white 384-well plate at 4 μL/well. The plate was incubated at 25° C. for 2 h after the mixture was uniformly mixed. The MAb anti-6His-Eu cryptate and the affinity streptomycin linked XL665 were each diluted to the corresponding concentration with an assay buffer, and added to a white 384-well plate at 5 μL/well. The plate was incubated at 25° C. for 2-4 h after the mixture was uniformly mixed. The signal values were read with the HTRF program in a microplate reader (BMG Labtech, model: PHERAstar FS).
(In general: TR-FRET usually uses a lanthanide donor and a delayed reading to cut background.)

Data set [1] deals with human acute lymphoblastic leukemia RS4;11 mouse subcutaneous xenograft tumor. The data set is described as follows: Therapeutic effect on RS4;11 mouse subcutaneous xenograft tumor. Particulars: NOD-Scid mice, RS4;11 xenograft; for Tolerability in tumor-bearing mice (weight loss) / Tumor rate TGI (%) inhibition: 10 mg/kg IV QW; for Tumor rate TGI (%) inhibition: D 20; for Mean tumor volume (mm^3) D 0: day 0, 10 mg/kg IV QW; for Mean tumor volume (mm^3) D 20: day 20, 10 mg/kg IV QW. The class given is in vivo. On the procedure:
This experiment was performed to evaluate and compare the therapeutic effect of the compounds of the present disclosure on human acute lymphoblastic leukemia RS4;11 mouse subcutaneous xenograft tumor.
NOD-Scid mice, 5 weeks old, purchased from Beijing Huafukang Biotechnology Co., Ltd. Production license No.: SCXK (Beijing) 2019-0008; animal certification No.: 110322211100992176. Housing environment: SPF grade. 6 mice in a vehicle group, and 8 mice in a compound group.
5 mg of compound was added to 250 μL of DMSO and vortexed to provide a 20 mg/mL solution, which was diluted to the desired concentration with 30% hydroxypropyl-o-cyclodextrin (HP-3-CD, InnoStar Biotechnology Nantong Co., Ltd, Nantong).
Human acute lymphoblastic leukemia RS4;11 was purchased from American Type Culture Collection. RS4;11 cells were cultured in a 10 cm petri dish with an RPMI 1640 culture medium (Gibco) containing 10% fetal bovine serum (Gibco) and penicillin and streptomycin in an incubator at 37° C. containing 5% CO2. The cells were passaged twice a week, and then collected, counted and inoculated when in the exponential growth phase.
Each mouse was inoculated subcutaneously with 1×10^7 RS4;11 cells. When tumors grew to 100-200 mm^3, the mice were grouped according to tumor volume, intravenously (IV) injected with the drug once a week (QW) for a total of 4 times, at an injection volume of 0.1 mL/10 g body weight and a dose of 10 mg/kg.
The experimental index was to investigate the influence of the drug on the tumor growth, and the specific index was T/C % or tumor growth inhibition (TGI %).
Tumor diameters were measured twice a week with a vernier caliper and tumor volume (V) was calculated according to the following formula:
V=½×a×b^2 where a and b represent length and width, respectively.
T/C(%)=(T−T0)/(C−C0)×100,
where T and C represent the tumor volume of animals at the end of the experiment in the treatment group and control group, respectively;
T0 and C0 represent the tumor volume of animals at the beginning of the experiment in the treatment group and control group, respectively.
Tumor growth inhibition % (TGI %)=100−T/C(%).
When tumor started to regress, tumor growth inhibition % (TGI %)=100−(T−T0)/T0×100.
If the tumor had reduced volume compared with the initial volume, i.e., T<T0 or C<C0, it was defined as partial regression (PR) of tumor; if the tumor completely disappeared, it was defined as complete regression (CR) of tumor.

A further data set deals with RS4;11 cells. The data set is described as follows: Inhibition of proliferation of RS4;11 cells (CellTiter-Glo). Particulars: Homo sapiens, 72 h, 3 days, read-out: Inhibitory activity IC50 (nM) for the proliferation of RS4;11 cells. The class given is cell-based. On the procedure: In vitro inhibitory activity for the proliferation of RS4;11 cells and NCI-H146 cells was tested by the following method.
Reagents used in this experiment: RPMI-1640 medium (HyCLone, Cat #SH30243018); fetal bovine serum (Gibco, Cat #10099-141); pancreatin (Gibco, Cat #25200-072); Cell Titer-Glo (Promega, Cat #G7571).
Materials used: RS4;11 cells (Nanjing Kebai Biotechnology Co., Ltd, Cat #CBP60641); and NCI-H146 cells (ATCC, Cat #HTB-173).
The in vitro cell proliferation assay described below can determine the inhibitory activity of the test compounds for the proliferation of RS4;11 cells and NCI-H146 cells.
RS4;11 cells (or NCI-H146 cells) were cultured in an RPMI-1640 culture medium containing 10% FBS, and were passaged for 2-3 times a week in a passage ratio of 1:3 or 1:5. During passage, the cells were transferred to a centrifuge tube, and centrifuged at 1200 rpm for 3 min. The supernatant was discarded, and fresh culture medium was added to resuspend the cells. 90 μL of cell suspension was added to a 96-well cell culture plate, wherein RS4;11 cells and NCI-H146 cells were added at a density of 2.22×10^5 cells/mL. Only 100 μL of complete medium (RPMI-1640 medium containing 10% FBS) was added to the periphery of the 96-well plate. The plate was incubated in an incubator for 24 h (37° C., 5% CO2).
The test sample was diluted to a proper concentration gradient with dimethyl sulfoxide as required for the experiment. 5 μL of the solution of the test compound prepared in a gradient concentration was added to 95 μL of fresh culture medium and mixed uniformly, and then 10 μL of the culture medium containing the above compound was added to a cell culture plate. The cell culture plate was incubated in an incubator for 3 days (37° C., 5% CO2). 50 μL of CellTiter-Glo reagent was added into each well of the 96-well cell culture plate. The plate was let stand for 5-10 min away from the light at room temperature. The chemiluminescence signals were read by a microplate reader (BMG Labtech, model: PHERAstar FS) and the data were processed by GraphPad software.
On the technique in general: In ATP-based viability assays light output follows the ATP content of the culture.

The structures appear in SMILES notation.

T1 sequence (P10415 whole entry): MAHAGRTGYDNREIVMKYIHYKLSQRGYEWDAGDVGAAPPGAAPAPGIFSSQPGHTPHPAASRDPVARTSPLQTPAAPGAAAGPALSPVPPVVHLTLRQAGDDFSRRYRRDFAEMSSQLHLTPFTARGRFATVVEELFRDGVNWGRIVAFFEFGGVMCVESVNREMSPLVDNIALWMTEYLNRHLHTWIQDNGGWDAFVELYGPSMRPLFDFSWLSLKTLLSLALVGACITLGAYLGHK

Regarding `O=C(NS(=O)(=O)c1ccc(N[C@@H](CSc2ccccc2)C[C@@H]2CCCN2CCO)c(S(=O)(=O)C(F)(F)F)c1)c1ccc(N2CCC([C@@H](O)c3ccccc3-c3ccc(Cl)cc3)CC2)cc1` [Example 2-9, 4-(4-((R)-(4′-chloro-[1,1′-biphenyl]-2-yl)(hydroxy)methyl)piperidin-1-yl)-N-((4-(((R)-1-((S)-1-(2-hydroxyethyl)pyrrolidin-2-yl)-3-(phenylthio)propan-2-yl)amino)-3-((trifluoromethyl)sulfonyl)phenyl)sulfonyl)benzamide], on BCL-2, the affinity, expressed as Ki, was 0.02 nM. Besides, in data set [1], the “Tolerability in tumor-bearing mice (weight loss)” value is recorded as “well tolerate”, the “Tumor rate TGI (%) inhibition” value worked out at 72%, the “Mean tumor volume (mm^3) D 0” value was determined as 151.0 mm^3 and the “Mean tumor volume (mm^3) D 20” value stood at 612.7 mm^3. For the same compound, in the data set with RS4;11 cells, the IC50 turned out to be 1.8 nM.
Turning to `CN(CCO)CC[C@H](CSc1ccccc1)Nc1ccc(S(=O)(=O)NC(=O)c2ccc(N3CCC([C@@H](O)c4ccccc4-c4ccc(C(F)(F)F)cc4)CC3)cc2)cc1S(=O)(=O)C(F)(F)F` [Example 2-10, 4-(4-((R)-hydroxy(4′-(trifluoromethyl)-[1,1′-biphenyl]-2-yl)methyl)piperidin-1-yl)-N-((4-(((R)-4-((2-hydroxyethyl)(methyl)amino)-1-(phenylthio)butan-2-yl)amino)-3-((trifluoromethyl)sulfonyl)phenyl)sulfonyl)benzamide], the inhibition constant (Ki) at BCL-2 was determined as 0.03 nM. For the same compound, in data set [1], the “Tolerability in tumor-bearing mice (weight loss)” value is listed as “well tolerate”, the “Tumor rate TGI (%) inhibition” value is given as 82%, the “Mean tumor volume (mm^3) D 0” value is 151.9 mm^3 and the “Mean tumor volume (mm^3) D 20” value was 443.3 mm^3. For the same compound, the IC50 in the data set on RS4;11 cells was found to be 1 nM.

By Ki is commonly meant the dissociation constant of the complex between target and ligand, obtained from inhibition or displacement.
